In patent US20230100707A1, “MELANOMA THERAPEUTICS” (ESCAPE THERAPEUTICS, INC., priority 2020, published 2023):
Where no end group is shown, it is not given here.

Assays:
[1] = system: Human Primary Melanocytes; test: Trypan blue dye exclusion toxicity on human primary melanocytes; assay type: cell-based; details: for cell death: 1 millimolar, 72 hours of incubation, melanocytes; for % toxicity: trypan blue
Procedure: (§1) Cellular toxicity was measured using a trypan blue dye exclusion assay. Cells were cultured in 6-well plates at a density of 4×10^5 cells per well. […] After 24 hours, an aliquot was taken and cells counted using a hemacytometer. Cytotoxicity was measured according to the following formula: […]
(§2) The same procedure was repeated after 3 and 6 days of incubation.

Human Fibroblasts = test: Trypan blue dye exclusion toxicity on human fibroblasts; assay type: cell-based; details: for cell death: 1 millimolar, 72 hours of incubation, fibroblasts; for % toxicity: trypan blue
Procedure: as §1, §2

mouse melanoma cells = details: for cytotoxicity to mouse melanoma (figure): treated with 3 millimolar, figure vs untreated; for cell death / cytotoxicity: 3 millimolar, incubation for 3 days, MTT (FIG. 4)
Procedure: (§3) Human and mouse melanoma cell lines as wells as Fibroblasts were cultured using DMEM with L-glutamine, 10 percent FBS and 1 percent P/S (Thermo Fisher Scientific, NY). Human melanocytes were cultured using medium 254 (Thermo Fisher Scientific, NY) and incubated at 37 degrees Celsius in a humidified 5 percent CO2 chamber.
(§4) Proliferation rates were determined using a TACS® MTT Cell Proliferation Kit (R&D Systems, Minneapolis, Minn.). Cells were seeded at 2.5×10 ^4 per well in 96-well plates in a humidified atmosphere with 5 percent CO2 at 37 degrees Celsius. Twenty-four hours later, oligopeptides or hydroquinone were added to the corresponding wells at varying concentrations (0.03, 0.1, 0.3, 1, and 3 millimolar (mM)), and cultures were incubated for 72 hours. The remainder of the procedure was performed following the manufacturer's protocol.

[2] = system: human epidermal keratinocytes; test: Cytotoxicity towards human epidermal keratinocytes (figures); assay type: cell-based; details: normal human epidermal keratinocytes, 3 millimolar in figure
Procedure: Human neonatal epidermal keratinocytes were cultured in Epilife media containing 60 μM of calcium chloride (Thermo Fisher Scientific, NY). All cell cultures were incubated in a humidified chamber at 37 degrees Celsius and 5 percent CO2.
The figures show human epidermal keratinocytes with 3 millimolar P5, human epidermal keratinocytes with 3 millimolar P14, and human epidermal keratinocytes with 3 millimolar HQ.

[3] = system: human metastatic melanoma line harboring the V600E BRAF mutation; test: MTT cell proliferation and viability assay, human melanoma cells
Procedure: as §3, §4

Row | Compound | cell death [1] [%] | % toxicity ([1]; Day 1, 30 μM) [%] | % toxicity ([1]; Day 1, 100 μM) [%] | % toxicity ([1]; Day 1, 300 μM) [%] | % toxicity ([1]; Day 1, 1000 μM) [%] | % toxicity ([1]; Day 3, 30 μM) [%] | % toxicity ([1]; Day 3, 100 μM) [%] | % toxicity ([1]; Day 3, 300 μM) [%] | % toxicity ([1]; Day 3, 1000 μM) [%] | % toxicity ([1]; Day 6, 30 μM) [%] | % toxicity ([1]; Day 6, 100 μM) [%] | % toxicity ([1]; Day 6, 300 μM) [%] | % toxicity ([1]; Day 6, 1000 μM) [%] | cell death (Human Fibroblasts) [%] | % toxicity (Human Fibroblasts; Day 1, 30 μM) [%] | % toxicity (Human Fibroblasts; Day 1, 100 μM) [%] | % toxicity (Human Fibroblasts; Day 1, 300 μM) [%] | % toxicity (Human Fibroblasts; Day 1, 1000 μM) [%] | % toxicity (Human Fibroblasts; Day 3, 30 μM) [%] | cytotoxic effects towards keratinocytes [2] | also measured
1 | CC(C)CC(NC(=O)C1CCCN1)C(=O)NCC(=O)O (centres unmarked) [P5, PLG] | 9 | 0.1 | 0.1 | 2.2 | 7.8 | 0.1 | 0.1 | 2.4 | 8.7 | 0.1 | 0.1 | 2.7 | 9.3 | 3 | 0.1 | 0.1 | 0.1 | 2.1 | 0.1 | very little to no cytotoxic effects | % toxicity ([1]; Day 1, 3000 μM): 13.3%; % toxicity ([1]; Day 3, 3000 μM): 13.5%; % toxicity ([1]; Day 6, 3000 μM): 14.5%; % toxicity (Human Fibroblasts; Day 1, 10 μM): 0.1%; % toxicity (Human Fibroblasts; Day 3, 10 μM): 0.1%; % toxicity (Human Fibroblasts; Day 3, 100 μM): 0.1%; % toxicity (Human Fibroblasts; Day 3, 300 μM): 0.5%; % toxicity (Human Fibroblasts; Day 3, 1000 μM): 2.6%; % toxicity (Human Fibroblasts; Day 6, 10 μM): 0.1%; % toxicity (Human Fibroblasts; Day 6, 30 μM): 0.1%; % toxicity (Human Fibroblasts; Day 6, 100 μM): 0.1%; % toxicity (Human Fibroblasts; Day 6, 300 μM): 1.1%; % toxicity (Human Fibroblasts; Day 6, 1000 μM): 3.9%; cytotoxicity to mouse melanoma (figure) (mouse melanoma cells): selectively cytotoxic
2 | Oc1ccc(O)cc1 [HQ, Hydroquinone, reference compound] | 100 | 41 | 98 | 100 | 100 | 53 | 100 | 100 | 100 | 60 | 100 | 100 | 100 | 100 | 3 | 17 | 27 | 100 | 9 | indiscriminate cytotoxicity | % toxicity ([1]; Day 1, 10 μM): 27%; % toxicity ([1]; Day 3, 10 μM): 29%; % toxicity ([1]; Day 6, 10 μM): 35%; % toxicity (Human Fibroblasts; Day 1, 3000 μM): 100%; % toxicity (Human Fibroblasts; Day 3, 100 μM): 20%; % toxicity (Human Fibroblasts; Day 3, 300 μM): 44%; % toxicity (Human Fibroblasts; Day 3, 1000 μM): 100%; % toxicity (Human Fibroblasts; Day 3, 3000 μM): 100%; % toxicity (Human Fibroblasts; Day 6, 30 μM): 15%; % toxicity (Human Fibroblasts; Day 6, 100 μM): 30%; % toxicity (Human Fibroblasts; Day 6, 300 μM): 54%; % toxicity (Human Fibroblasts; Day 6, 1000 μM): 100%; % toxicity (Human Fibroblasts; Day 6, 3000 μM): 100%; cell death / cytotoxicity (mouse melanoma cells): 90%; cytotoxicity ([3]; human, 72 h, 1 mM): ~80%
3 | RRFVLL [P14, RRFVLL] | – | – | – | – | – | – | – | – | – | – | – | – | – | – | – | – | – | – | – | very little to no cytotoxic effects | cell death / cytotoxicity (mouse melanoma cells): 49%; cytotoxicity to mouse melanoma (figure) (mouse melanoma cells): selectively cytotoxic; cytotoxicity ([3]; 1 millimolar, human melanoma cells, MTT (FIG. 5)): ~36%; cytotoxicity to human melanoma (figure) ([3]; treated with 3 millimolar, figure vs untreated): selectively cytotoxic
